In patent US20200071316A1, “ACTIVATORS OF THE RETINOIC ACID INDUCIBLE GENE "RIG-I" PATHWAY AND METHODS OF USE THEREOF” (Kineta Immuno-Oncology LLC, priority 2018, published 2020):

Experiments:
[1] = tested on: THP1-Lucia ISG IRF3 −/− cells; assay: IRF3-deficient THP1-Lucia ISG IRF3 −/− reporter assay (counter-screen); type: cell-based; details: Homo sapiens, 18 h after stimulation, read-out: THP1 ISG IRF3 −/−: fold increase of luciferase activity over background; for fold induction at 10 µM: 10 μM compound
Outline: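 PMA-differentiated (100 ng/ml) reporter cells carrying ISRE/ISG54 minimal promoter-driven secreted luciferase were stimulated with compounds at 5–20 μM (mostly 10 μM). Luciferase measured 18 h later and expressed as fold increase over untreated background, binned from "−" (<2.4-fold) to "+++++" (≥40-fold).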

[2] = tested on: murine CT26 colon carcinoma cells; assay: Compound-induced immunogenic cell death: calreticulin translocation to cell surface (MFI of CRT+ LDV− cells); type: cell-based; details: 18 h after treatment, dose titration, FIG. 1B
From the text: (§1) To determine if the RIG-I agonist compounds induce immunogenic cell death in cancer cells, induction of apoptosis and the translocation or of calreticulin (CRT) to the cell surface in murine CT26 colon carcinoma cells were evaluation. The translocation of CRT occurs as part of a specific RIG-I dependent danger-signaling system, and the presence of CRT on the cell membrane promotes tumor antigen uptake by the dendritic cells and leads to the induction of am antigen-specific T cell response
(§2) The induction of apoptosis and the CRT translocation was measured by flow cytometry. […] Cells were harvested 18 h after treatment and then prepared for flow cytometry using an Annexin V staining kit (Biolegend) for quantification of apoptosis, an anti-CRT antibody (Abgent) for calreticulin translocation, and the Live/Dead-Violet staining kit (Thermofisher) for cell viability. Induction of apoptosis and translocation of calreticulin (CRT) to cell surface by live cells was determined by tri-color flow cytometry using FITC-labeled Annexin V, Live/Dead-Violet (LDV), and APC-anti-CRT. Apoptotic cells were defined as Annexin V^+ and calreticulin translocation to cell surface was quantified by mean fluorescent intensity (MFI) of calreticulin^+ live cells (CRT^+ LDV^−). […]

[3] = tested on: IRF3 signaling pathway (IRF-inducible ISG54 promotor) in THP1-Lucia ISG cells; assay: THP1-Lucia ISG reporter assay: induction of IRF3-dependent luciferase activity; type: cell-based; details: Homo sapiens, 10 μM compound, PMA-differentiated cells, 18 h after stimulation, read-out: THP1 ISG: fold increase of IRF3-dependent luciferase activity over background
Outline: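 PMA-differentiated (100 ng/ml) reporter cells, parental and IRF3−/−, stimulated with compounds at 5–20 μM (mostly 10 μM). Secreted luciferase measured 18 h later. Scored as fold increase over untreated background in bands from "−" (<2.4-fold) to "+++++" (≥40-fold).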

[4] = tested on: CXCL10 secretion by CT26 cells; assay: RIG-I dependent CXCL10 secretion by CT26 colon carcinoma cells (ELISA); type: cell-based, murine; details: 10 μM compound, 24 h
Outline: (§3)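 Murine CT26 colon carcinoma cells, and CRISPR-generated RIG-I knockout CT26 cells, were seeded at 1×10^4 cells/well and grown 24 h at 37 °C, 5% CO2, then treated with compounds at 5 to 20 μM. CXCL10 in supernatants was measured by ELISA 24 h after stimulation.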

[5] = tested on: murine CT26 colon carcinoma cells; assay: Compound-induced immunogenic cell death: apoptosis (Annexin V+) by flow cytometry; type: cell-based; details: 18 h after treatment, dose titration, FIG. 1A
From the text: as §1, §2

[6] = tested on: RIG-I deficient CT26 RIG-1−/− cells; assay: CXCL10 secretion in RIG-I deficient CT26 RIG-1−/− cells (ELISA); type: cell-based, murine; details: 10 μM compound, 24 h
Outline: as §3

| Compound | fold induction at 10 µM [1] | induction of immunogenic cell death: calreticulin translocation to cell surface [2] | fold induction at 10 µM [3] | CXCL10 secretion by CT26 cells [4] | induction of immunogenic cell death: apoptosis (Annexin V+) [5] | CXCL10 secretion by CT26 RIG-I −/− cells [6] | fold induction at 5 µM ([1]; 5 μM compound (**)) |
| --- | --- | --- | --- | --- | --- | --- | --- |
| O=C(Nc1c(Cl)cccc1Cl)c1ccc2nc(NC(=O)c3cc4ccccc4cc3OCCCCN3CCOCC3)sc2c1 [Example 19, N-(2,6-dichlorophenyl)-2-{3-[4-(morpholin-4-yl)butoxy]naphthalene-2-amido}-1,3-benzothiazole-6-carboxamide] | < 2.4 | induction of immunogenic cell death | 5 to 9.9 | ++++ (“++++” indicates 800 to 1599 pg/mL) | induction of immunogenic cell death | − (“−” indicates less than 100 pg/mL) | – |
| O=C(Nc1cc2ccc(S(=O)(=O)N3CCCC3)cc2s1)c1cc2c(cc1OCCN1CCOCC1)OCO2 [Example 75] | < 2.4 | – | 5 to 9.9 | ++ (“++” indicates 200-399 pg/mL) | – | − (“−” indicates less than 100 pg/mL) | – |
| O=C(Nc1cc2ccc(S(=O)(=O)N3CCCC3)cc2s1)c1cc2ccsc2cc1OCCN1CCOCC1 [Example 76, 6-[2-(morpholin-4-yl)ethoxy]-N-[6-(pyrrolidine-1-sulfonyl)-1-benzothiophen-2-yl]-1-benzothiophene-5-carboxamide] | < 2.4 | – | 20 to 39 | ++++ (“++++” indicates 800 to 1599 pg/mL) | – | − (“−” indicates less than 100 pg/mL) | – |
| O=C(Nc1nc2ccc(S(=O)(=O)N3CC[C@@H](O)C3)cc2s1)c1cc2ccccc2cc1OCCN1CCOCC1 [Example 77, N-(6-{[(3R)-3-hydroxypyrrolidin-1-yl]sulfonyl}-1,3-benzothiazol-2-yl)-3-[2-(morpholin-4-yl)ethoxy]naphthalene-2-carboxamide] | < 2.4 | – | 2.4 to 4.9 | + (“+” indicates 100-199 pg/mL) | – | − (“−” indicates less than 100 pg/mL) | – |
| O=C(Nc1nc2ccc(S(=O)(=O)N3CC[C@@H](O)C3)cc2s1)c1cc2ccccc2cc1OCCCCN1CCOCC1 [Example 78, N-(6-{[(3R)-3-hydroxypyrrolidin-1-yl]sulfonyl}-1,3-benzothiazol-2-yl)-3-[4-(morpholin-4-yl)butoxy]naphthalene-2-carboxamide] | – | – | ≥ 40 | +++++ (“+++++” indicates greater than or equal to 1600 pg/ml) | – | − (“−” indicates less than 100 pg/mL) | < 2.4 |
| O=C(Nc1nc2ccc(S(=O)(=O)N3CCCC3)cc2s1)c1cc2ccccc2cc1OCCCCN1CCC(F)(F)CC1 [Example 80, 3-[4-(4,4-difluoropiperidin-1-yl)butoxy]-N-[6-(pyrrolidine-1-sulfonyl)-1,3-benzothiazol-2-yl]naphthalene-2-carboxamide] | < 2.4 | – | 20 to 39 | ++++ (“++++” indicates 800 to 1599 pg/mL) | – | − (“−” indicates less than 100 pg/mL) | – |
| O=C(Nc1cc2ccc(S(=O)(=O)N3CCCC3)cc2s1)c1ccc(-c2ccccc2)cc1 [Example 81, N-[6-(pyrrolidine-1-sulfonyl)-1-benzothiophen-2-yl]-[1,1′-biphenyl]-4-carboxamide] | < 2.4 | – | 20 to 39 | ++++ (“++++” indicates 800 to 1599 pg/mL) | – | − (“−” indicates less than 100 pg/mL) | – |
| O=C(Nc1nc2ccc(S(=O)(=O)N3CCCC3)cc2s1)c1sc2ccccc2c1OCCN1CCOCC1 [Example 84, 3-[2-(morpholin-4-yl)ethoxy]-N-[6-(pyrrolidine-1-sulfonyl)-1,3-benzothiazol-2-yl]-1-benzothiophene-2-carboxamide] | < 2.4 | – | 5 to 9.9 | ++ (“++” indicates 200-399 pg/mL) | – | − (“−” indicates less than 100 pg/mL) | – |
